Data taken from ChEMBL document CHEMBL1201862, “PubChem BioAssay data set” (2004).
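Assay format: 96-well plates, 48-hour exposure. The concentration for 50% growth inhibition is given as GI50.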 The source made the active and inactive calls. No stated cut-off is given here; in the data, active = GI50 up to about 1.1 µM and inactive = higher. *1 amine or outer side, *2 acyl side, *3 side chain or, on linkers, in order; H or OH if unused. Where a SMILES comes first, the peptide text is derived from it. Bridges are numbered along the chain shown (N, C = ends). Roman numbers before positions name the chains, in order. [ ]: non-standard residue; d: D form. Actinocin(9to1) = Cc1c2oc3c(C)ccc(C(=O)[*:1])c3nc-2c(C(=O)[*:2])c(N)c1=O; Hyp = O=C(O)[CH]1C[CH](O)CN1; NMeV = CN[CH](C(=O)O)C(C)C; Sar = CNCC(=O)O

How the values were obtained:
Assay in all cases: DTP human tumour cell line panel, 48 h
NCI-H460 = tested on: NCI-H460
UACC-257 = tested on: UACC-257
A549 = tested on: A549
MDA-MB-435 = tested on: MDA-MB-435
SK-MEL-2 = tested on: SK-MEL-2
K562 = tested on: K562
HOP-92 = tested on: HOP-92
T47D = tested on: T47D
A498 = tested on: A498
PC-3 = tested on: PC-3
RPMI-8226 = tested on: RPMI-8226
UO-31 = tested on: UO-31
RXF 393 = tested on: RXF 393
OVCAR-4 = tested on: OVCAR-4
SW-620 = tested on: SW-620
CAKI-1 = tested on: CAKI-1
SK-MEL-28 = tested on: SK-MEL-28
NCI/ADR-RES = tested on: NCI/ADR-RES
Malme-3M = tested on: Malme-3M
NCI-H522 = tested on: NCI-H522
ACHN = tested on: ACHN
786-0 = tested on: 786-0
HCC 2998 = tested on: HCC 2998
HCT-116 = tested on: HCT-116
U-251 = tested on: U-251
MDA-MB-231 = tested on: MDA-MB-231
Hs-578T = tested on: Hs-578T
MDA-N = tested on: MDA-N
OVCAR-8 = tested on: OVCAR-8
MOLT-4 = tested on: MOLT-4
EKVX = tested on: EKVX
CCRF-CEM = tested on: CCRF-CEM
MCF7 = tested on: MCF7
HOP-62 = tested on: HOP-62
DU-145 = tested on: DU-145
HL-60 = tested on: HL-60
SK-MEL-5 = tested on: SK-MEL-5
COLO 205 = tested on: COLO 205
SNB-75 = tested on: SNB-75
M14 = tested on: M14
OVCAR-5 = tested on: OVCAR-5
SF-295 = tested on: SF-295
SNB-19 = tested on: SNB-19
NCI-H226 = tested on: NCI-H226
SF-268 = tested on: SF-268
HT-29 = tested on: HT-29
LOX IMVI = tested on: LOX IMVI
SF-539 = tested on: SF-539
HCT-15 = tested on: HCT-15
NCI-H23 = tested on: NCI-H23
IGROV-1 = tested on: IGROV-1
SK-OV-3 = tested on: SK-OV-3
TK-10 = tested on: TK-10
OVCAR-3 = tested on: OVCAR-3
KM12 = tested on: KM12
SN12C = tested on: SN12C
SR = tested on: SR

## Cc1c2oc3c(C)ccc(C(=O)NC4C(=O)NC(C(C)C)C(=O)N5CC(O)CC5C(=O)N(C)CC(=O)N(C)C(C(C)C)C(=O)OC4C)c3nc-2c(C(=O)NC2C(=O)NC(C(C)C)C(=O)N3CC(O)CC3C(=O)N(C)CC(=O)N(C)C(C(C)C)C(=O)OC2C)c(N)c1=O (stereo not drawn) (I: TV[Hyp][Sar][NMeV] / II: TV[Hyp][Sar][NMeV]; ester I:1-I:C, II:1-II:C; linker I:N-II:N via Actinocin(9to1); configuration not given here)
NCI-H460
  GI50: > 1000 nM (active)
UACC-257
  GI50: > 1000 nM (active)
A549
  GI50: > 1000 nM (active)
MDA-MB-435
  GI50: > 1000 nM (active)
SK-MEL-2
  GI50: > 1000 nM (active)
K562
  GI50: > 1000 nM (active)
HOP-92
  GI50: > 1000 nM (active)
T47D
  GI50: > 1000 nM (active)
A498
  GI50: > 1000 nM (active)
PC-3
  GI50: > 1000 nM (active)
RPMI-8226
  GI50: > 1000 nM (active)
UO-31
  GI50: > 1000 nM (active)
RXF 393
  GI50: > 1000 nM (active)
OVCAR-4
  GI50: > 1000 nM (active)
SW-620
  GI50: > 1000 nM (active)
CAKI-1
  GI50: > 1000 nM (active)
SK-MEL-28
  GI50: > 1000 nM (active)
NCI/ADR-RES
  GI50: > 1000 nM (active)
Malme-3M
  GI50: > 1000 nM (active)
NCI-H522
  GI50: 52.2 nM (active)
ACHN
  GI50: > 1000 nM (active)
786-0
  GI50: > 1000 nM (active)
HCC 2998
  GI50: > 1000 nM (active)
HCT-116
  GI50: > 1000 nM (active)
U-251
  GI50: > 1000 nM (active)
MDA-MB-231
  GI50: > 1000 nM (active)
Hs-578T
  GI50: > 1000 nM (active)
MDA-N
  GI50: > 1000 nM (active)
OVCAR-8
  GI50: > 1000 nM (active)
MOLT-4
  GI50: > 1000 nM (active)
EKVX
  GI50: > 1000 nM (active)
CCRF-CEM
  GI50: > 1000 nM (active)
MCF7
  GI50: > 1000 nM (active)
HOP-62
  GI50: > 1000 nM (active)
DU-145
  GI50: > 1000 nM (active)
HL-60
  GI50: > 1000 nM (active)
SK-MEL-5
  GI50: > 1000 nM (active)
COLO 205
  GI50: > 1000 nM (active)
SNB-75
  GI50: > 1000 nM (active)
M14
  GI50: > 1000 nM (active)
OVCAR-5
  GI50: > 1000 nM (active)
SF-295
  GI50: > 1000 nM (active)
SNB-19
  GI50: > 1000 nM (active)
NCI-H226
  GI50: > 1000 nM (active)
SF-268
  GI50: > 1000 nM (active)
HT-29
  GI50: > 1000 nM (active)
LOX IMVI
  GI50: > 1000 nM (active)
SF-539
  GI50: > 1000 nM (active)
HCT-15
  GI50: > 1000 nM
NCI-H23
  GI50: > 1000 nM (active)
IGROV-1
  GI50: > 1000 nM (active)
SK-OV-3
  GI50: > 1000 nM (active)
TK-10
  GI50: > 1000 nM (active)
OVCAR-3
  GI50: > 1000 nM (active)
KM12
  GI50: > 1000 nM (active)
SN12C
  GI50: > 1000 nM (active)
SR
  GI50: 748 nM (active)

## CC(C)=CCC/C(C)=C\CC/C(C)=C/CO
NCI-H460
  GI50: > 10000 nM (inactive)
UACC-257
  GI50: 36100 nM (inactive)
A549
  GI50: > 100000 nM (inactive)
MDA-MB-435
  GI50: 19600 nM (inactive)
SK-MEL-2
  GI50: 16400 nM (inactive)
K562
  GI50: 19700 nM (inactive)
HOP-92
  GI50: 10500 nM (inactive)
T47D
  GI50: 31000 nM (inactive)
PC-3
  GI50: 41400 nM (inactive)
RPMI-8226
  GI50: 14700 nM (inactive)
UO-31
  GI50: 22500 nM (inactive)
OVCAR-4
  GI50: 26200 nM (inactive)
SW-620
  GI50: 85900 nM (inactive)
CAKI-1
  GI50: > 10000 nM (inactive)
SK-MEL-28
  GI50: 44900 nM (inactive)
NCI/ADR-RES
  GI50: 13700 nM (inactive)
Malme-3M
  GI50: 18200 nM (inactive)
NCI-H522
  GI50: 14200 nM (inactive)
ACHN
  GI50: 22400 nM (inactive)
786-0
  GI50: 17400 nM (inactive)
HCC 2998
  GI50: 22600 nM (inactive)
HCT-116
  GI50: 19800 nM (inactive)
U-251
  GI50: 17600 nM (inactive)
MDA-MB-231
  GI50: 42000 nM (inactive)
Hs-578T
  GI50: 28800 nM (inactive)
MDA-N
  GI50: 65600 nM (inactive)
OVCAR-8
  GI50: 21600 nM (inactive)
MOLT-4
  GI50: 20500 nM (inactive)
EKVX
  GI50: 30600 nM (inactive)
CCRF-CEM
  GI50: 19500 nM (inactive)
MCF7
  GI50: 19300 nM (inactive)
HOP-62
  GI50: 19600 nM (inactive)
DU-145
  GI50: 27100 nM (inactive)
HL-60
  GI50: 17100 nM (inactive)
SK-MEL-5
  GI50: 26400 nM (inactive)
COLO 205
  GI50: 40100 nM (inactive)
SNB-75
  GI50: 31900 nM (inactive)
M14
  GI50: 16500 nM (inactive)
OVCAR-5
  GI50: > 100000 nM (inactive)
SF-295
  GI50: 23100 nM (inactive)
SNB-19
  GI50: 18500 nM (inactive)
NCI-H226
  GI50: 36400 nM (inactive)
SF-268
  GI50: 37200 nM (inactive)
HT-29
  GI50: 19700 nM (inactive)
LOX IMVI
  GI50: > 10000 nM (inactive)
SF-539
  GI50: 21000 nM (inactive)
HCT-15
  GI50: 40100 nM
NCI-H23
  GI50: 23800 nM (inactive)
IGROV-1
  GI50: 24400 nM (inactive)
TK-10
  GI50: 25700 nM (inactive)
OVCAR-3
  GI50: 16800 nM (inactive)
KM12
  GI50: 38200 nM (inactive)
SN12C
  GI50: 41100 nM (inactive)
SR
  GI50: 21400 nM (inactive)

## C/C=C/C=C/c1cc2cc3c(c(O)c2c(=O)[nH]1)C1(CC3)C(=O)c2c(O)c3c(c(O)c2C1=O)C(=O)C(OC)=CC3=O (stereo not drawn)
MDA-MB-435
  GI50: 303 nM (active)
HOP-92
  GI50: 32.8 nM (active)
T47D
  GI50: < 10 nM (active)
PC-3
  GI50: 57.3 nM (active)
NCI/ADR-RES
  GI50: 283 nM (active)
MDA-MB-231
  GI50: 203 nM (active)
Hs-578T
  GI50: 132 nM (active)
MDA-N
  GI50: 267 nM (active)
MCF7
  GI50: 68.1 nM (active)
DU-145
  GI50: 378 nM (active)
HL-60
  GI50: < 10 nM (active)
LOX IMVI
  GI50: 20.5 nM (active)
